The values that follow come from patent publication US5821239A (priority 1996, dated 1998).

The IC50 is the concentration needed to halve the response being measured.

The structures appear in SMILES notation. Where two headings read alike, the source gives them in different places.

The target in test [1] is Brain AChE (acetylcholinesterase, rat striatum) (Rattus norvegicus, UniProt P37136). Kind of test: biochemical. Details: species or system rat (male Wistar).
The test system of test [2] is Scopolamine Induced Memory Deficit (mice). Particulars: mouse, in vivo, sc.

Brain AChE (acetylcholinesterase, rat striatum), sequence (P37136 32-614): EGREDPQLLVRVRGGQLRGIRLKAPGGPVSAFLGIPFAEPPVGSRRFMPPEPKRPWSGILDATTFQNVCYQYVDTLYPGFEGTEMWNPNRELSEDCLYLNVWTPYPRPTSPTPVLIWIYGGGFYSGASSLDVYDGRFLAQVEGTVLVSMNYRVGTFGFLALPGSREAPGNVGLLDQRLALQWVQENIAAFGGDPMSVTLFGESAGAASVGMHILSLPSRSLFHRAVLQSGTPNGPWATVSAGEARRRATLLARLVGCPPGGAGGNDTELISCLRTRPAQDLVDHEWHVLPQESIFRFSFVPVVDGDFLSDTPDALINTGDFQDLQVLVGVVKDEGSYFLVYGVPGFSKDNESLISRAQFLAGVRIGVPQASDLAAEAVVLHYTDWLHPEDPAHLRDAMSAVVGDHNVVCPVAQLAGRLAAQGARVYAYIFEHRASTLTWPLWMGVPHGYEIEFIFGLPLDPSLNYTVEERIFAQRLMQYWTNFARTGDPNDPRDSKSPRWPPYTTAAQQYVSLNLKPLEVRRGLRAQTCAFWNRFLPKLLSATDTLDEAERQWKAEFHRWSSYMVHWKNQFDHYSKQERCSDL

`CCNC(=O)Oc1cnccc1N=CN(C)C` [4-[[(Dimethylamino)methylene]amino]-3-pyridinol ethylcarbamate] registered an IC50 in test [1] of 9.37 µM. Moreover, the “% of Animals with Scopolamine Induced Memory Deficit Reversal” value worked out at 20.0% in test [2] (0.1 mg/kg) and 21.4% in test [2] (0.3 mg/kg).

As to `CNC(=O)Oc1cnccc1N=CN(C)C` [4-[[(Dimethylamino)methylene]amino]-3-pyridinol methylcarbamate], in test [1], it took 12.6 µM to reach half-maximal inhibition (IC50).
